Source: US20240051952A1, “HMOX1 INDUCERS” (Mitobridge Inc., priority 2019, published 2024)

Test system: Human Heme Oxygenase-1 (HMOX-1)
Assay: ELISA assay to measure human heme oxygenase-1 (HMOX-1) in HepG2 lysate
Format: cell-based
Conditions: fold change of human HMOX1 protein levels relative to DMSO control, HepG2
How it was run: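 HepG2 cells lysed in PBS/0.5% Triton X-100/1 mM EDTA with protease inhibitors; lysate diluted 1:20. Sandwich ELISA: anti-HO-1 capture (8 μg/ml), biotinylated detection antibody (200 ng/ml), streptavidin-HRP, chemiluminescent read. Quantified against 12-point HO-1 standard curve from 20 ng/ml; incubations at 20 °C.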

| SMILES | Maximum Fold induction |
| --- | --- |
| Cn1c(Nc2nc3ccc(C(C)(C)O)cc3o2)nc2cc(C(=O)NCCO)ccc21 [Example 133, N-(2-hydroxyethyl)-2-((6-(2-hydroxypropan-2-yl)benzo[d]oxazol-2-yl)amino)-1-methyl-1H-benzo[d]imidazole-5-carboxamide] | 17 |
| Cn1c(Nc2nc3ccc(C(F)(F)F)cc3o2)nc2cc(C(=O)NCCN3CCCCC3)ccc21 [Example 37, 1-methyl-N-(2-(piperidin-1-yl)ethyl)-2-((6-(trifluoromethyl)benzo[d]oxazol-2-yl)amino)-1H-benzo[d]imidazole-5-carboxamide] | 28 |
| Cn1c(Nc2nc3ccc(Br)cc3o2)nc2cc(C(=O)O)ccc21 [Example 91, 2-((6-bromobenzo[d]oxazol-2-yl)amino)-1-methyl-1H-benzo[d]imidazole-5-carboxylic acid] | 17-26 |
| Cn1c(Nc2nc3ccccc3o2)nc2cc(C(O)C(F)(F)F)ccc21 (centres unmarked) [Example 142, 1-(2-(benzo[d]oxazol-2-ylamino)-1-methyl-1H-benzo[d]imidazol-5-yl)-2,2,2-trifluoroethan-1-ol] | 27 |
| COCCNC(=O)c1ccc2c(c1)nc(Nc1nc3ccc(C(F)(F)F)cc3o1)n2C [Example 32, N-(2-methoxyethyl)-1-methyl-2-((6-(trifluoromethyl)benzo[d]oxazol-2-yl)amino)-1H-benzo[d]imidazole-5-carboxamide] | 14-50 |
| COCCNC(=O)c1ccc2c(c1)nc(Nc1nc3ccc(OC(F)(F)F)cc3o1)n2CC1(O)COC1 [Example 94, 1-((3-hydroxyoxetan-3-yl)methyl)-N-(2-methoxyethyl)-2-((6-(trifluoromethoxy)benzo[d]oxazol-2-yl)amino)-1H-benzo[d]imidazole-5-carboxamide] | 28 |
| Cn1c(Nc2nc3ccccc3o2)nc2cc(C(=O)NCCOCC(=O)O)ccc21 [Example 29, 2-(2-(2-(benzo[d]oxazol-2-ylamino)-1-methyl-1H-benzo[d]imidazole-5-carboxamido)ethoxy)acetic acid] | 12 |
| Cn1c(Nc2nc3ccccc3o2)nc2cc(C(=O)C(F)(F)F)ccc21 [Example 139, 1-(2-(benzo[d]oxazol-2-ylamino)-1-methyl-1H-benzo[d]imidazol-5-yl)-2,2,2-trifluoroethan-1-one] | 21 |
| COCCNC(=O)c1ccc2c(c1)nc(Nc1nc3ccc(OC(F)(F)F)cc3s1)n2C1CCOCC1 [Example 2e, N-(2-methoxyethyl)-1-(tetrahydro-2H-pyran-4-yl)-2-((6-(trifluoromethoxy)benzo[d]thiazol-2-yl)amino)-1H-benzo[d]imidazole-5-carboxamide] | 20-33 |
| Cn1c(Nc2nc3ccc(Cl)cc3o2)nc2cc(C(=O)O)ccc21 [Example 96, 2-((6-chlorobenzo[d]oxazol-2-yl)amino)-1-methyl-1H-benzo[d]imidazole-5-carboxylic acid] | 39-56 |
| Cn1c(Nc2nc3cc(C(F)(F)F)ccc3o2)nc2cc(C(=O)NCCOCCO)ccc21 [Example 43, N-(2-(2-hydroxyethoxy)ethyl)-1-methyl-2-((5-(trifluoromethyl)benzo[d]oxazol-2-yl)amino)-1H-benzo[d]imidazole-5-carboxamide] | 56 |
| COCCn1c(Nc2nc3cc(OC(F)(F)F)ccc3[nH]2)nc2cc(C(=O)O)ccc21 [Example 75, 1-(2-methoxyethyl)-2-((5-(trifluoromethoxy)-1H-benzo[d]imidazol-2-yl)amino)-1H-benzo[d]imidazole-5-carboxylic acid] | 15-25 |
| Cn1c(Nc2nc3cccnc3o2)nc2cc(C(=O)NCCO)ccc21 [Example 110, N-(2-hydroxyethyl)-1-methyl-2-(oxazolo[5,4-b]pyridin-2-ylamino)-1H-benzo[d]imidazole-5-carboxamide] | 60 |
| COCCONC(=O)c1ccc2c(c1)nc(Nc1nc3ccc(C(F)(F)F)cc3o1)n2C [Example 124, N-(2-methoxyethoxy)-1-methyl-2-((6-(trifluoromethyl)benzo[d]oxazol-2-yl)amino)-1H-benzo[d]imidazole-5-carboxamide] | 31-52 |
| COCCNC(=O)c1ccc2c(c1)nc(Nc1nc3cc(OC(F)(F)F)ccc3[nH]1)n2C [Example 14, N-(2-methoxyethyl)-1-methyl-2-((5-(trifluoromethoxy)-1H-benzo[d]imidazol-2-yl)amino)-1H-benzo[d]imidazole-5-carboxamide] | 6-25 |
| COCCNC(=O)c1ccc2c(c1)nc(Nc1nc3ccc(OC(F)(F)F)cc3o1)n2CCOC [Example 78, N,1-bis(2-methoxyethyl)-2-((6-(trifluoromethoxy)benzo[d]oxazol-2-yl)amino)-1H-benzo[d]imidazole-5-carboxamide] | 21-23 |

| SMILES | Maximum Fold induction |
| --- | --- |
| CN1CCC(n2c(Nc3nc4ccc(OC(F)(F)F)cc4s3)nc3cc(C(=O)O)ccc32)C1 (centres unmarked) [Example 4d, 1-(1-methylpyrrolidin-3-yl)-2-((6-(trifluoromethoxy)benzo[d]thiazol-2-yl)amino)-1H-benzo[d]imidazole-5-carboxylic acid] | 29-33 |
| Cn1c(Nc2nc3ccc(OCC(F)(F)F)cc3o2)nc2cc(C(=O)O)ccc21 [Example 98, 1-methyl-2-((6-(2,2,2-trifluoroethoxy)benzo[d]oxazol-2-yl)amino)-1H-benzo[d]imidazole-5-carboxylic acid] | 36-56 |
| Cn1c(Nc2nc3ccc(OC(F)(F)F)cc3o2)nc2cc(C(=O)Nc3cn[nH]c3)ccc21 [Example 46, 1-methyl-N-(1H-pyrazol-4-yl)-2-((6-(trifluoromethoxy)benzo[d]oxazol-2-yl)amino)-1H-benzo[d]imidazole-5-carboxamide] | 14-20 |
| CN(C)CCNC(=O)c1ccc2c(c1)nc(Nc1nc3ccccc3o1)n2C [Example 21, 2-(benzo[d]oxazol-2-ylamino)-N-(2-(dimethylamino)ethyl)-1-methyl-1H-benzo[d]imidazole-5-carboxamide] | 14 |
| COCCNC(=O)c1ccc2c(c1)nc(Nc1nc3cc(C)ccc3o1)n2C [Example 65, N-(2-methoxyethyl)-1-methyl-2-((5-methylbenzo[d]oxazol-2-yl)amino)-1H-benzo[d]imidazole-5-carboxamide] | 15-42 |
| Cn1c(Nc2nc3ccccc3o2)nc2cc(C(=O)NCC3(O)COC3)ccc21 [Example 26, 2-(benzo[d]oxazol-2-ylamino)-N-((3-hydroxyoxetan-3-yl)methyl)-1-methyl-1H-benzo[d]imidazole-5-carboxamide] | 26 |
| Cn1c(Nc2nc3ccc(OCCO)cc3o2)nc2cc(C(=O)NCCO)ccc21 [Example 103, 2-((6-(2-hydroxyethoxy)benzo[d]oxazol-2-yl)amino)-N-(2-hydroxyethyl)-1-methyl-1H-benzo[d]imidazole-5-carboxamide] | 37-39 |
| Cn1c(Nc2nc3ccc(C(F)(F)F)nc3o2)nc2cc(C(=O)NCCO)ccc21 [Example 113, N-(2-hydroxyethyl)-1-methyl-2-((5-(trifluoromethyl)oxazolo[5,4-b]pyridin-2-yl)amino)-1H-benzo[d]imidazole-5-carboxamide] | 20 |
| Cn1c(Nc2nc3ccc(Cl)cc3o2)nc2cc(C(=O)NCCO)ccc21 [Example 97, 2-((6-chlorobenzo[d]oxazol-2-yl)amino)-N-(2-hydroxyethyl)-1-methyl-1H-benzo[d]imidazole-5-carboxamide] | 33-51 |
| Cn1c(Nc2nc3cc(Cl)ccc3[nH]2)nc2cc(C(=O)O)ccc21 [Example 82, 2-((5-chloro-1H-benzo[d]imidazol-2-yl)amino)-1-methyl-1H-benzo[d]imidazole-5-carboxylic acid] | 29-33 |
| CC(O)COCCNC(=O)c1ccc2c(c1)nc(Nc1nc3ccccc3o1)n2C (centres unmarked) [Example 25] | 26 |
| COCCNC(=O)c1ccc2c(c1)nc(Nc1nc3ccc(OC(F)(F)F)cc3o1)n2C1CCOCC1 [Example 80, N-(2-methoxyethyl)-1-(tetrahydro-2H-pyran-4-yl)-2-((6-(trifluoromethoxy)benzo[d]oxazol-2-yl)amino)-1H-benzo[d]imidazole-5-carboxamide] | 22-23 |
| COCCNC(=O)c1ccc2c(c1)nc(Nc1nc3ccc(OC(F)F)cc3o1)n2C [Example 63, 2-((6-(difluoromethoxy)benzo[d]oxazol-2-yl)amino)-N-(2-methoxyethyl)-1-methyl-1H-benzo[d]imidazole-5-carboxamide] | 11-15 |
| Cn1c(Nc2nc3cc(F)ccc3o2)nc2cc(C(=O)O)ccc21 [Example 66, 2-((5-fluorobenzo[d]oxazol-2-yl)amino)-1-methyl-1H-benzo[d]imidazole-5-carboxylic acid] | 19-22 |
| Cl.Cn1c(Nc2nc3ccccc3o2)nc2cc(C(=O)NCCN)ccc21 [Example 18, N-(2-aminoethyl)-2-(benzo[d]oxazol-2-ylamino)-1-methyl-1H-benzo[d]imidazole-5-carboxamide hydrochloride] | 41-52 |
| CN(C)CC(=O)NCCONC(=O)c1ccc2c(c1)nc(Nc1nc3ccccc3o1)n2C [Example 121, 2-(benzo[d]oxazol-2-ylamino)-N-(2-(2-(dimethylamino)acetamido)ethoxy)-1-methyl-1H-benzo[d]imidazole-5-carboxamide] | 22-23 |
